# According to patent publication US20090176817A1, “Method of Treatment of Diarrhea-Predominant Irritable Bowel Syndrome in a Subject” (priority 2005, published 2009):
# Marks after values point to notes of the source that are not given here.
# Legend:
# human 5-HT3 receptor = molecular target: T1, human 5-HT3 receptor (Homo sapiens, UniProt P46098); test: 5-HT3 receptor binding
# T1 sequence (P46098 24-478): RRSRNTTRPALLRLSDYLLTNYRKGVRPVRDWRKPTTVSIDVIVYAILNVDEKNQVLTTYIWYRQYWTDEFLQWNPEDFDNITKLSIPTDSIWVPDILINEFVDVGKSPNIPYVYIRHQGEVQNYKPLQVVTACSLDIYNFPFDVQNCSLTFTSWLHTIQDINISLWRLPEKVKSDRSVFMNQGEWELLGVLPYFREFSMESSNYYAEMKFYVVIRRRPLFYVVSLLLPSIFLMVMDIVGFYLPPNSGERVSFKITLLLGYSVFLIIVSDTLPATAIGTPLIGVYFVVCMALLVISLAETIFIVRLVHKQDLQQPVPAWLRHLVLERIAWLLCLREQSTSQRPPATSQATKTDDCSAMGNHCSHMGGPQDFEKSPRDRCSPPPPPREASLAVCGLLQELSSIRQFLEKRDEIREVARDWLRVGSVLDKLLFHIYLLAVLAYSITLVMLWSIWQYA
# [1] = Study S.241.1.109: single and multiple dose pharmacokinetics 2 mg TID; assay type: in vivo, human
# Protocol: In an open-label, randomized, parallel-group study in 36 healthy, male and female subjects (19-45 years), subjects received a 2 mg single dose of cilansetron on Day 1 and 2 mg TID on Days 2-7. The morning doses on Days 1 and 7 were administered immediately after a standard breakfast. Serial blood samples for the measurement of single-dose and steady-state pharmacokinetics of cilansetron and its main metabolites, (4R)-hydroxy cilansetron and (4S)-hydroxy cilansetron, were collected on Day 1 (single dose) up to 24 hours postdose and on Day 7 (multiple dose) up to 8 hours postdose.
# [2] = Study S.241.1.109: interaction with fluvoxamine 50 mg QD; assay type: in vivo, human; settings: for AUC(0-τ) / Cmax / Tmax: steady state; for AUC(0-τ): AUC(0-8); for AUC(0-τ) / Cmax: arith. mean; for Tmax: median
# Protocol: (§1) In an open-label, randomized, parallel-group study in three groups of 12 healthy, male and female subjects (aged 19 to 45 years), subjects received a 2 mg single dose of cilansetron on Day 1, 2 mg TID on Days 2-13, and a 2 mg single dose on Day 14. […] All morning doses of cilansetron and enzyme inhibitors were administered immediately after a standard breakfast. […] For each treatment group, log-transformed cilansetron AUC(0-τ) and Cmax values on Day 14 (cilansetron+enzyme inhibitor) were compared statistically versus values on Day 7 (cilansetron alone).
# FIG. 42, FIG. 43, and FIG. 44 present geometric mean steady-state plasma concentration-time profiles for cilansetron and its 4-hydroxy metabolites in the absence and presence of concomitant fluvoxamine.
# [3] = Study S.241.1.109: interaction with paroxetine 20 mg QD; assay type: in vivo, human; settings: for AUC(0-τ) / Cmax / Tmax: steady state; for AUC(0-τ): AUC(0-8); for AUC(0-τ) / Cmax: arith. mean; for Tmax: median; for Mean AUC increase with paroxetine / Mean Cmax increase with paroxetine: human
# Protocol: as §1
# FIG. 50, FIG. 51, and FIG. 52 present geometric mean steady-state plasma concentration-time profiles for cilansetron and its 4-hydroxy metabolites in the absence and presence of concomitant paroxetine. […] These increases in exposure are not clinically significant.
# [4] = Study S.241.1.109: interaction with ketoconazole 200 mg BID; assay type: in vivo, human; settings: for AUC(0-τ) / Cmax / Tmax: steady state; for AUC(0-τ): AUC(0-8); for AUC(0-τ) / Cmax: arith. mean; for Tmax: median
# Protocol: as §1
# [5] = Study S241.1.111: relative bioavailability and food effect, 2 mg tablet vs oral solution; assay type: in vivo, human; settings: for AUC(0-t): AUC(0-last); for half-life: T½
# Protocol: Subjects were randomized to receive a cilansetron 2 mg tablet after an overnight fast, a cilansetron 2 mg tablet after a high-fat breakfast, and a cilansetron 2 mg oral solution after an overnight fast during the three treatment periods, with a 7-day washout between periods. Serial blood sampling was performed up to 24 hours following each treatment, and plasma pharmacokinetics parameters for cilansetron and its metabolites, (4R)-hydroxy cilansetron and (4S)-hydroxy cilansetron, were estimated. FIG. 4, FIG. 5, and FIG. 6 present mean plasma concentration-time profiles for cilansetron and its metabolites following treatment with the cilansetron tablet and oral solution. Table 2.7.1.2.2 presents descriptive statistics for the pharmacokinetic parameters of cilansetron and its metabolites for the tablet and oral solution, and the results of statistical comparisons between treatments (tablet versus solution).
# Subjects were randomized to receive a cilansetron 2 mg tablet after an overnight fast, a cilansetron 2 mg tablet after a high-fat breakfast, and a cilansetron 2 mg oral solution after an overnight fast during the three treatment periods, with a 7-day washout between periods. Serial blood sampling was performed up to 24 hours following each treatment and plasma pharmacokinetics parameters for cilansetron and its metabolites, (4R)-hydroxy cilansetron and (4S)-hydroxy cilansetron, were estimated. FIG. 7, FIG. 8, and FIG. 9 present mean plasma concentration-time profiles for cilansetron and its metabolites following treatment with the cilansetron tablet under fasted conditions and following a high-fat meal. Table 2.7.1.2.4 presents descriptive statistics for the pharmacokinetic parameters of cilansetron and its metabolites for the tablet under fed and fasted conditions, and the results of statistical comparisons between treatments (fed versus fasted).
# [6] = Cilansetron 2 mg TID + Fluvoxamine 50 mg once daily
# [7] = Cilansetron 2 mg TID alone (fluvoxamine group)
# [8] = cilansetron + fluvoxamine / cilansetron alone, ANOVA of log-transformed data
# [9] = Cilansetron 2 mg TID + Paroxetine 20 mg QD
# [10] = Cilansetron 2 mg TID alone (paroxetine group)
# [11] = cilansetron + paroxetine / cilansetron alone, ANOVA of log-transformed data
# [12] = Cilansetron 2 mg TID + Ketoconazole 200 mg twice daily
# [13] = Cilansetron 2 mg TID alone (ketoconazole group)
# [14] = cilansetron + ketoconazole / cilansetron alone, ANOVA of log-transformed data
# [15] = 2 mg tablet, fasted, single dose
# [16] = both sexes, human, in vivo, 2 mg
# [17] = both sexes, human, in vivo, 2 mg, Cmax
# [18] = both sexes, human, in vivo, po, 2 mg
compound,measurement,setting,value
Cc1nccn1CC1CCc2c(c3cccc4c3n2CC[C@H]4O)C1=O (stereo partly drawn) [(4R)-hydroxy cilansetron],pKi,human 5-HT3 receptor,8.5
same,AUC(0-τ),"[1]; 2 mg TID, Day 7",12.9 (18) ng · h/mL
same,Cmax,"[1]; 2 mg TID, Day 7",2.66 (22) ng/mL
same,AUC(0-inf),"[1]; 2 mg single dose, Day 1",11.7 (18) ng · h/mL
same,AUC(0-τ),"[1]; 2 mg single dose, Day 1",8.43 (21) ng · h/mL
same,Cmax,"[1]; 2 mg single dose, Day 1",1.92 (27) ng/mL
same,T½,"[1]; 2 mg single dose, Day 1",3.89 (15) h
same,AUC accumulation ratio Day 7/Day 1,[1]; AUC(0-τ),147^d %
same,Linearity Ratio,[1]; AUC(0-τ) Day 7 to AUC(0-inf) Day 1,107%
same,Tmax,"[1]; Day 1, median (min, max)","2.00 (0.50, 4.00)^b h"
same,Accumulation following TID dosing (mean increase),"[1]; Day 7:Day 1, AUC(0-τ) and Cmax",35-47%
same,Tmax,"[1]; Day 7, median (min, max)","2.00 (0.75, 4.00)^b h"
same,Time of peak concentration,[1]; after cilansetron dosing,approximately 2 hours
same,half-life,[1]; approximate mean,approximately 4 hours
same,AUC(0-τ) (Day 7) to AUC(0-inf) (Day 1) mean ratio,"[1]; human, in vivo",1.07
same,Cmax accumulation ratio Day 7/Day 1,"[1]; human, in vivo",135^e %
same,AUC(0-τ),[2]; [6],9.57 ng·h/mL
same,Cmax,[2]; [6],1.63 ng/mL
same,Tmax,[2]; [6],0.75 h
same,AUC(0-τ),[2]; [7],12.9 ng·h/mL
same,Cmax,[2]; [7],2.74 ng/mL
same,Tmax,[2]; [7],1.75 h
same,AUC(0-τ) Ratio (Treatment B/A),[2]; [8],76%
same,Cmax Ratio (Treatment B/A),[2]; [8],60%
same,Mean AUC decrease with fluvoxamine,"[2]; human, in vivo",24%
same,Mean Cmax decrease with fluvoxamine,"[2]; human, in vivo",40%
same,AUC(0-τ),[3]; [9],15.2 ng·h/mL
same,Cmax,[3]; [9],3.41 ng/mL
same,Tmax,[3]; [9],1.50 h
same,AUC(0-τ),[3]; [10],13.5 ng·h/mL
same,Cmax,[3]; [10],2.76 ng/mL
same,Tmax,[3]; [10],2.50 h
same,AUC(0-τ) Ratio (Treatment B/A),[3]; [11],116%
same,Cmax Ratio (Treatment B/A),[3]; [11],127%
same,Mean AUC increase with paroxetine,[3]; in vivo,16%
same,Mean Cmax increase with paroxetine,[3]; in vivo,27%
same,AUC(0-τ),[4]; [12],20.8 ng·h/mL
same,Cmax,[4]; [12],5.11 ng/mL
same,Tmax,[4]; [12],1.50 h
same,AUC(0-τ),[4]; [13],12.2 ng·h/mL
same,Cmax,[4]; [13],2.48 ng/mL
same,Tmax,[4]; [13],2.00 h
same,AUC(0-τ) Ratio (Treatment B/A),[4]; [14],176%
same,Cmax Ratio (Treatment B/A),[4]; [14],209%
same,AUC(0-inf),"[5]; 2 mg oral solution, fasted",14.3 (26) ng · h/mL
same,AUC(0-last),"[5]; 2 mg oral solution, fasted",13.5 (27) ng · h/mL
same,Cmax,"[5]; 2 mg oral solution, fasted",2.82 (26) ng/mL
same,T½,"[5]; 2 mg oral solution, fasted",3.90 (19) h
same,Tmax,"[5]; 2 mg oral solution, fasted, median",1.00 h
same,AUC(0-inf),[5]; [15],14.4 (25) ng · h/mL
same,AUC(0-last),[5]; [15],13.7 (26) ng · h/mL
same,Cmax,[5]; [15],2.87 (20) ng/mL
same,T½,[5]; [15],3.90 (22) h
same,Tmax,"[5]; 2 mg tablet, fasted, median",1.25 h
same,AUC(0-inf),"[5]; 2 mg tablet, fed",13.6 (26) ng · h/mL
same,Cmax,"[5]; 2 mg tablet, fed",2.23 (26) ng/mL
same,T½,"[5]; 2 mg tablet, fed",4.46 (31) h
same,AUC(0-last),"[5]; 2 mg tablet, fed (high-fat breakfast)",12.8 (27) ng · h/mL
same,Tmax,"[5]; 2 mg tablet, fed, median",1.75 h
"Cc1nccn1C[C@H]1CCc2c(c3cccc4c3n2CCC4)C1=O [Cilansetron, (R)-(−)-4,5,6,8,9,10-hexahydro-10-[(2-methyl-1H-imidazol-1-yl)methyl]-11H-pyrido-[3,2,1-jk]-carbazol-11-one]",pKi,human 5-HT3 receptor,9.4
same,Tmax,"[1]; both sexes, human, in vivo",1.75 h
same,Tmax at 7 day,"[1]; both sexes, human, in vivo",1.5 h
same,AUC(0-inf),[1]; [16],22.3 ng·h/mL
same,AUC,"[1]; both sexes, human, in vivo, 2 mg, AUC(0-τ)",21 ng·h/mL
same,Cmax,[1]; [17],6.63 ng/mL
same,Cmax at 7 day,[1]; [17],7.55 ng/mL
same,Cmax,"[1]; both sexes, human, in vivo, 2 mg, Plasma Cmax",6 to 7 ng/mL
same,half-life,"[1]; both sexes, human, in vivo, 2 mg, T½",1.6 h
same,half-life,"[1]; both sexes, human, in vivo, Half-life",1 to 2 h
same,AUC accumulation ratio Day 7/Day 1,"[1]; both, human, in vivo",105^d %
same,Cmax accumulation ratio Day 7/Day 1,"[1]; both, human, in vivo",110^e %
same,Linearity Ratio,"[1]; both, human, in vivo",99%
same,AUC(0-τ),"[1]; both, human, in vivo, 2 mg",23.5 (44) ng · h/mL
same,Intersubject % CV for AUC and Cmax,"[1]; both, human, in vivo, 2 mg",44-56%
same,T½,"[1]; both, human, in vivo, 2 mg",1.64 (18) h
same,Increase in cilansetron exposure with fluvoxamine,"[2]; both, human, in vivo",3.7-6.6 fold
same,Mean AUC increase with fluvoxamine,"[2]; both, human, in vivo",6.6 fold
same,Mean Cmax increase with fluvoxamine,"[2]; both, human, in vivo",3.7 fold
same,Mean AUC increase with paroxetine,"[3]; both, in vivo",20%
same,Mean Cmax increase with paroxetine,"[3]; both, in vivo",36%
same,Effect of paroxetine,[3]; in vivo,no significant effect
same,AUC(0-inf),"[5]; both sexes, human, in vivo, 2 mg, AUC(0-inf)",22.8 ng·h/mL
same,AUC(0-t),[5]; [16],22.4 ng·h/mL
same,Cmax,[5]; [17],8.24 ng/mL
same,Tmax,"[5]; both sexes, human, in vivo, 2 mg, Tmax",1 h
same,half-life,[5]; [16],1.42 h
same,AUC(0-inf),"[5]; both sexes, human, in vivo, po, 2 mg, AUC(0-inf)",20.7 ng·h/mL
same,AUC(0-t),[5]; [18],20.2 ng·h/mL
same,Cmax,"[5]; both sexes, human, in vivo, po, 2 mg, Cmax",7.55 ng/mL
same,Tmax,"[5]; both sexes, human, in vivo, po, 2 mg, Tmax",1 h
same,half-life,[5]; [18],1.48 h
same,Intrasubject % CV for AUC,"[5]; both, human, in vivo",19.2%
same,Intrasubject % CV for Cmax,"[5]; both, human, in vivo",24.5%
same,AUC(0-inf) increase under fed conditions,"[5]; both, human, in vivo, 2 mg",20%
same,AUC(0-inf) ratio fed/fasted,"[5]; both, human, in vivo, 2 mg",121%
same,Cmax ratio fed/fasted,"[5]; both, human, in vivo, 2 mg",101%
same,AUC(0-inf) ratio tablet/oral solution,"[5]; both, human, in vivo, po",99%
same,Cmax ratio tablet/oral solution,"[5]; both, human, in vivo, po",108%
